Laboratory results published in US20150342933A1, “APORPHINE ALKALOID DERIVATIVE FOR […]-DEPENDENT PROTEIN KINASE” (ZIH YUAN TANG Biotechnology Co., Ltd, priority 2014, published 2015).

Tested on: AMPK
Assay: AMPK phosphorylation in C2C12 myocytes (Western blot, Phospho-AMPKα Thr172)
Assay type: cell-based, mouse
Experimental: C2C12 skeletal myoblast cell line was purchased from the Food Industry Research and Development Institute (Hsinchu, Taiwan). The C2C12 cell line was a cell line obtained from culturing the leg skeletal muscle of adult C3H mice in a cell incubator under 95% […], 5% CO2, and 37° C. The cells were cultured in a DMEM medium (Gibco/Invitrogen, Carlsbad, Calif.) containing 4.5 mg/mL glucose, 10% fetal bovine serum (FBS; Gibco/Invitrogen, Carlsbad, Calif.), and an antibiotic solution (with final concentrations of penicillin=100 IU/mL and streptomycin=100 μg/mL). When the C2C12 myoblast cells have proliferated to cover seven-tenths of the area in the petri dish, the fetal bovine serum was replaced by 2% horse serum (Gibco/Invitrogen, Carlsbad, Calif.) so as to induce the C2C12 myoblast cells to become the multi-nuclei myocytes. The C2C12 myoblast cells differentiated into myocytes in 4 days, and the culture medium of the cells was replaced with no-serum DMEM 24 hours before the experiments so as to reduce metabolism of the cells.
The C2C12 myocytes were treated respectively with 1 μM, 3 μM and 10 μM 1,10-dihydroxyaporphine hydrobromide for 5 and 15 minutes. Then the C2C12 myocytes were rinsed with PBS buffer solution, and RIPA buffer solution containing protease inhibitors (20 mM Tris-HCl (pH 7.4), 100 mM NaCl, 1 mM EDTA, 1 mM EGTA, 0.1% SDS, 0.5% sodium deoxycholate, 1% NP-40, and 100× protease inhibitor cocktail) was added into the cells. The cells were collected and centrifuged on ice. Then, the concentrations of the supernatant samples were adjusted to be the same.
The supernatant samples were put through vertical electrophoresis isolation with 8% SDS-PAGE, and the isolated proteins were transferred onto a PVDF blotting membrane. After blotting was completed, the PVDF blotting membrane was removed and blocked for 1 hour under room temperature with a blocking buffer of TBST (Tris-buffered saline with Tween-20) with 5% non-fat milk. Then, the PVDF blotting membrane was placed into a 5% BSA and TBST solution containing the primary monoclonal antibodies Phospho-AMPKα (Thr172) (Cell Signaling) (1:1000) and AMPKα […] (Cell Signaling) (1:1000), respectively, and the primary immunoblotting reaction was performed under 4° C. Then, the PVDF blotting membrane was rinsed 3 times with TBST, and a TBST solution containing the secondary antibody goat anti-rabbit IgG (Perkin Elmer) (1:10000) was added to perform the secondary reaction for one hour under room temperature. Finally, the membrane was rinsed 3 times with TBST before ECL (enhanced chemiluminescence) was added to present color.

Br.CN1CCc2ccc(O)c3c2C1Cc1ccc(O)cc1-3 (stereo not shown) [1,10-dihydroxyaporphine hydrobromide]
AMPK phosphorylation, times of that in the control cells (3 μM, 5 minutes): 1.33 times | AMPK phosphorylation, times of that in the control cells (3 μM, 15 minutes): 1.21 times | AMPK phosphorylation, times of that in the control cells (10 μM, 5 minutes): 1.23 times | AMPK phosphorylation, times of that in the control cells (10 μM, 15 minutes): 1.65 times
